Assay results: publication PMC8536644, “Enigmatic mechanism of the N-vinylpyrrolidone hepatocarcinogenicity in the rat” (Archives of Toxicology, 2021)
Values joined by “and” are separate entries in the source; they are usually repeats but may differ in a detail not shown here. Equal values may be shown once. Read-outs that look alike come from different tables or passages of the source.

Assays:
rat liver cells [1] = test: Comet assay in presence of FPG, liver; settings: liver, male, with FPG, 5 days; for TI (%), mean of medians from 2 slides: individual animals
Method: Animals were anesthetized by 3.5% isoflurane (approximately 3 min, evaporator Dräger Vapor 19.3) and then killed by cervical dislocation. The liver was removed and its left lateral lobe used for the Comet assay. The remainder of the liver was washed in saline and then in two aliquots shock frozen in liquid nitrogen and stored at − 80 °C for later examinations. Subsequently the lung was removed from the dead animal. Its left lobe was used for the Comet assay and the remainder treated as described above for the liver. Thereafter the femora were removed for the preparation of the bone marrow.
The Comet assay was performed under alkaline conditions according to the principles described by Singh et al. ([1988]) and Tice et al. ([2000]).
Liver and lung cells were obtained essentially as described by Hartmann et al. ([2004]) and by the Japanese Center for the Validation of Alternative Methods (JaCVAM [2009]). Single cells were obtained within 1 h after killing of the animals in order to minimize DNA damage during the preparation.
The organ parts (see above) were washed in mincing buffer (50 mM EDTA in HBSS [without Ca^2+ and Mg^2+] pH 7.5: DMSO 9:1 (v/v), the latter added shortly before use, stored at 4 °C), cut into 1 to 2-mm pieces in ice-cold mincing buffer and transferred to a cell sieve with 70-µm pores. The viability of the cell suspension was evaluated by the Trypan Blue Assay (Strober [2001]).
100 µL of the obtained cell suspension was mixed at 37 °C with 900 µL Low Melting Agarose (LMA) (0.7% agarose in phosphate-buffered saline [PBS] [Biochrom, Berlin, Germany] without Ca^2+ and Mg^2+). 100 µL of this mixture was transferred to a slide, which had been coated with Normal Melting Agarose (NMA) (0.6% agarose in PBS without Ca^2+ and Mg^2+). The slides were protected with a cover slip and the agarose was hardened at approximately 4 °C. The cover slips were then removed and the slides put over night at 4 °C into lysis buffer (2.5 M NaCl, 125 mM NaOH, 127 mM EDTA, 10 mM Tris/NaOH, pH 10; 1% Triton X-100 and 10% DMSO (v/v), the latter two added before use) in order to lyse the cell membrane, nuclear membrane and remove the histone.
The then following procedures were performed in a shaded room to minimize UV-mediated DNA damage during the procedures.
Those slides which were destined to be treated with the DNA base excision repair enzyme FPG (Sigma Aldrich, Steinheim, Germany) were washed (3 times for 5 min) with FPG buffer (0.04 M HEPES, 0.5 mM EDTA, 0.1 M KCl, pH 8; add shortly before use bovine serum albumin [BSA] to a final concentration of 0.02%). Subsequently 50 µL FPG-enzyme-buffer (prepared shortly prior to use by 30-fold dilution of the following suspension in FPG buffer: 7 µL FPG-enzyme (14 U) and 70 µL glycerol in 623 µL FPG-Puffer, stored at − 80 °C) was pipetted on the slide which was covered with a cover slide and incubated for 30 min at 37 °C while being placed on a humid filter paper. After hardening of the agarose cover slips were removed.
Remaining lysis buffer or FPG buffer was removed by immersing/washing the slides in PBS (without Ca^2+ and Mg^2+).

[2] = Trypan Blue viability of the single cell suspension, liver; format: in vivo, rat; settings: rat, inhaled
rat liver cells [3] = test: as above; format: in vivo; settings: liver, 5 days, individual animals

In the case of `C=CN1CCCC1=O` [NVP, N-vinylpyrrolidone], the “TI (%) (mean ± SD)” value (rat liver cells [1]; 5 ppm inhalation) is reported as 5.3 ± 1.09%, the “TI (%), mean of medians from 2 slides” value (rat liver cells [1]; 5 ppm inhalation) is reported as 4.3% and 5.8% and 5.2% and 4.0% and 7.0% and 5.7% and the “Hedgehogs/100 cells (mean ± SD)” value (rat liver cells [1]; 10 ppm inhalation) is reported as 2 ± 1 /100 cells. For the same compound, the “TI (%) (mean ± SD)” value (rat liver cells [1]; 10 ppm inhalation) was 6.1 ± 1.67%, the “TI (%), mean of medians from 2 slides” value (rat liver cells [1]; 10 ppm inhalation) was 8.3% and 7.5% and 3.7% and 4.9% and 6.5% and 5.8% and the “Hedgehogs/100 cells (mean ± SD)” value (rat liver cells [1]; 20 ppm inhalation) was 2 ± 1 /100 cells. For the same compound, the “TI (%) (mean ± SD)” value (rat liver cells [1]; 20 ppm inhalation) was 5.0 ± 1.09%, the “TI (%), mean of medians from 2 slides” value (rat liver cells [1]; 20 ppm inhalation) was 6.8% and 4.4% and 5.0% and 4.7% and 3.6% and 5.6% and the viability at 5 days ([2]; both sexes, Wistar Crl:WI (Han), liver and lung single cell suspensions, either of the two organs (liver, lung) after NVP treatment, read-out: Viability (dye exclusion test)) was > 90%. The viability at 5 days ([2]; both sexes, Wistar Crl:WI (Han), liver single cell suspension, liver cells, NVP-exposed, read-out: Viability, range of the individual animals) was 90 to 99%, the viability at 5 days ([2]; female, Wistar, liver, 5 ppm, liver, female, Comet with FPG (Table 9), 5 ppm inhalation, 5 days, individual animals, read-out: Individual viability (%)) was 99% and the viability at 5 days ([2]; female, Wistar, liver, 5 ppm, liver, female, Comet with FPG (Table 9), 5 ppm inhalation, 5 days, read-out: Viability (%) (mean ± SD)) was 99 ± 1%. The viability at 5 days ([2]; female, Wistar, liver, 5 ppm, liver, female, no FPG, 5 ppm inhalation, 5 days, individual animals, read-out: Individual viability (%)) was 98%, the viability at 5 days ([2]; female, Wistar, liver, 5 ppm, liver, female, no FPG, 5 ppm inhalation, 5 days, read-out: Viability (%) (mean ± SD)) was 97 ± 1% and the viability at 5 days ([2]; female, Wistar, liver, 10 ppm, liver, female, Comet with FPG (Table 9), 10 ppm inhalation, 5 days, individual animals, read-out: Individual viability (%)) was 98%. The viability at 5 days ([2]; female, Wistar, liver, 10 ppm, liver, female, Comet with FPG (Table 9), 10 ppm inhalation, 5 days, read-out: Viability (%) (mean ± SD)) was 98 ± 1%, the viability at 5 days ([2]; female, Wistar, liver, 10 ppm, liver, female, no FPG, 10 ppm inhalation, 5 days, individual animals, read-out: Individual viability (%)) was 96% and the viability at 5 days ([2]; female, Wistar, liver, 10 ppm, liver, female, no FPG, 10 ppm inhalation, 5 days, read-out: Viability (%) (mean ± SD)) was 96 ± 1%. It also gave a viability at 5 days ([2]; female, Wistar, liver, 20 ppm, liver, female, Comet with FPG (Table 9), 20 ppm inhalation, 5 days, individual animals, read-out: Individual viability (%)) of 98%, a viability at 5 days ([2]; female, Wistar, liver, 20 ppm, liver, female, Comet with FPG (Table 9), 20 ppm inhalation, 5 days, read-out: Viability (%) (mean ± SD)) of 98 ± 1% and a viability at 5 days ([2]; female, Wistar, liver, 20 ppm, liver, female, no FPG, 20 ppm inhalation, 5 days, individual animals, read-out: Individual viability (%)) of 96%. The viability at 5 days ([2]; female, Wistar, liver, 20 ppm, liver, female, no FPG, 20 ppm inhalation, 5 days, read-out: Viability (%) (mean ± SD)) was 97 ± 1%, the viability at 5 days ([2]; male, Wistar, liver, 5 ppm, liver, male, Comet with FPG (Table 8), 5 ppm inhalation, 5 days, individual animals, read-out: Individual viability (%)) was 97% and the viability at 5 days ([2]; male, Wistar, liver, 5 ppm, liver, male, Comet with FPG (Table 8), 5 ppm inhalation, 5 days, read-out: Viability (%) (mean ± SD)) was 98 ± 1%. It also gave a viability at 5 days ([2]; male, Wistar, liver, 5 ppm, liver, male, no FPG, 5 ppm inhalation, 5 days, individual animals, read-out: Individual viability (%)) of 92%, a viability at 5 days ([2]; male, Wistar, liver, 5 ppm, liver, male, no FPG, 5 ppm inhalation, 5 days, read-out: Viability (%) (mean ± SD)) of 95 ± 3% and a viability at 5 days ([2]; male, Wistar, liver, 10 ppm, liver, male, Comet with FPG (Table 8), 10 ppm inhalation, 5 days, individual animals, read-out: Individual viability (%)) of 99%. For the same compound, the viability at 5 days ([2]; male, Wistar, liver, 10 ppm, liver, male, Comet with FPG (Table 8), 10 ppm inhalation, 5 days, read-out: Viability (%) (mean ± SD)) was 98 ± 2%, the viability at 5 days ([2]; male, Wistar, liver, 10 ppm, liver, male, no FPG, 10 ppm inhalation, 5 days, individual animals, read-out: Individual viability (%)) was 96% and the viability at 5 days ([2]; male, Wistar, liver, 10 ppm, liver, male, no FPG, 10 ppm inhalation, 5 days, read-out: Viability (%) (mean ± SD)) was 96 ± 1%. For the same compound, the viability at 5 days ([2]; male, Wistar, liver, 20 ppm, liver, male, Comet with FPG (Table 8), 20 ppm inhalation, 5 days, individual animals, read-out: Individual viability (%)) was 100%, the viability at 5 days ([2]; male, Wistar, liver, 20 ppm, liver, male, Comet with FPG (Table 8), 20 ppm inhalation, 5 days, read-out: Viability (%) (mean ± SD)) was 99 ± 1% and the viability at 5 days ([2]; male, Wistar, liver, 20 ppm, liver, male, no FPG, 20 ppm inhalation, 5 days, individual animals, read-out: Individual viability (%)) was 98%. For the same compound, the viability at 5 days ([2]; male, Wistar, liver, 20 ppm, liver, male, no FPG, 20 ppm inhalation, 5 days, read-out: Viability (%) (mean ± SD)) was 97 ± 1%, the “Individual viability (%)” value (rat liver cells [3]; female, no FPG, 10 ppm inhalation) was 94% and the “Individual viability (%)” value (rat liver cells [3]; male, Comet with FPG (Table 8), 10 ppm inhalation) was 93%. The “Individual viability (%)” value (rat liver cells [3]; male, no FPG, 5 ppm inhalation) was 90% and the “Individual viability (%)” value (rat liver cells [3]; male, no FPG, 10 ppm inhalation) was 94%.
